What was measured:
[1] = target: Vascular endothelial growth factor receptor 3 (Homo sapiens) (UniProt P35916); assay: Inhibition of human FLT4 at 18.6 nM by HotSpot assay relative to control
[2] = target: T1, Serine/threonine-protein kinase Nek9 (Homo sapiens) (UniProt Q8TD19); assay: Inhibition of human NEK9 at 18.6 nM by HotSpot assay relative to control
T1 sequence (whole entry): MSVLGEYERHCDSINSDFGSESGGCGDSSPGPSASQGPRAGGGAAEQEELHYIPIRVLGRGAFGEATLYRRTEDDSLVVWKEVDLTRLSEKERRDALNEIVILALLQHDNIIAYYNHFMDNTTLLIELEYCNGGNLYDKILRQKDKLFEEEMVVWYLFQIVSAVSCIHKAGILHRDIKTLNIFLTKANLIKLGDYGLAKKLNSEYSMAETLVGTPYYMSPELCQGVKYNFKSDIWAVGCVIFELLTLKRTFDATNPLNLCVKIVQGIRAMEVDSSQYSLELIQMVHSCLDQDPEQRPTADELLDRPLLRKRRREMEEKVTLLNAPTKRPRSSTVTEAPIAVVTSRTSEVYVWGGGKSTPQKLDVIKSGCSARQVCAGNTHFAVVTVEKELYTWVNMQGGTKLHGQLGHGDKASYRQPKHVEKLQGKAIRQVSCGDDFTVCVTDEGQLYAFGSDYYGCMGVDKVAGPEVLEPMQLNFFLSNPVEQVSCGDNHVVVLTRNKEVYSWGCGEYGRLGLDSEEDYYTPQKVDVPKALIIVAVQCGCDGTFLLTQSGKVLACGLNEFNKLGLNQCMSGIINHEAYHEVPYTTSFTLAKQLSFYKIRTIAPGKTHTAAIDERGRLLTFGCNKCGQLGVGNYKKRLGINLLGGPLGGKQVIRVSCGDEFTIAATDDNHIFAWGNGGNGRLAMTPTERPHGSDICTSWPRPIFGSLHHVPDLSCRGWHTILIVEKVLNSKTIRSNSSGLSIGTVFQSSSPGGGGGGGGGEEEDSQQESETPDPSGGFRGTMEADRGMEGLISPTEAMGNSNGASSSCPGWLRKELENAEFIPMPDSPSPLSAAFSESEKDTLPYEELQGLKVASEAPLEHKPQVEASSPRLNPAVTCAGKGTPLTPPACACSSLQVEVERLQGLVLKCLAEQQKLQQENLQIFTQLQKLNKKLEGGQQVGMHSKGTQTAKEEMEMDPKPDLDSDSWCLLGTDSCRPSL

[3] = target: STE20/SPS1-related proline-alanine-rich protein kinase (Homo sapiens) (UniProt Q9UEW8); assay: Inhibition of human STLK3 at 18.6 nM by HotSpot assay relative to control
[4] = target: Wee1-like protein kinase (Homo sapiens) (UniProt P30291); assay: Inhibition of human WEE1 at 18.6 nM by HotSpot assay relative to control
Chain of Wee1-like protein kinase (Homo sapiens) (P30291 whole entry, looked up): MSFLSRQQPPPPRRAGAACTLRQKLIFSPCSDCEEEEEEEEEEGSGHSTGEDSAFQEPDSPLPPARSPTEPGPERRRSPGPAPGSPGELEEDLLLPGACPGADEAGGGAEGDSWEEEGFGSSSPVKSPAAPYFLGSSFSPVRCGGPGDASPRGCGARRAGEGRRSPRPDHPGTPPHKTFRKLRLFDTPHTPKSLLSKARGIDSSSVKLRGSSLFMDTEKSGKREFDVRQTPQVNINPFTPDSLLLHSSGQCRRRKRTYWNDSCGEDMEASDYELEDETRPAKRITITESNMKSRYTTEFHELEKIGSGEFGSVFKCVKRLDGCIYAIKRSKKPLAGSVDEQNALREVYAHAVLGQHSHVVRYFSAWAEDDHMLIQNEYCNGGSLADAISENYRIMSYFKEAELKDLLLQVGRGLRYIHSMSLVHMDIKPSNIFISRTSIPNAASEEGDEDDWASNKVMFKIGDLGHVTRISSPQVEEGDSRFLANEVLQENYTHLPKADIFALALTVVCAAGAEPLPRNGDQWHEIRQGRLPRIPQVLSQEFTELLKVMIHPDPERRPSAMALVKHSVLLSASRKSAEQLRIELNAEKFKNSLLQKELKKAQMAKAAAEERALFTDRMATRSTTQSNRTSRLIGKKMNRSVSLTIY

[5] = target: T2, Serine/threonine-protein kinase BRSK2 (Homo sapiens) (UniProt Q8IWQ3); assay: Inhibition of human BRSK2 at 1.82 nM by HotSpot assay relative to control
T2 sequence (whole entry): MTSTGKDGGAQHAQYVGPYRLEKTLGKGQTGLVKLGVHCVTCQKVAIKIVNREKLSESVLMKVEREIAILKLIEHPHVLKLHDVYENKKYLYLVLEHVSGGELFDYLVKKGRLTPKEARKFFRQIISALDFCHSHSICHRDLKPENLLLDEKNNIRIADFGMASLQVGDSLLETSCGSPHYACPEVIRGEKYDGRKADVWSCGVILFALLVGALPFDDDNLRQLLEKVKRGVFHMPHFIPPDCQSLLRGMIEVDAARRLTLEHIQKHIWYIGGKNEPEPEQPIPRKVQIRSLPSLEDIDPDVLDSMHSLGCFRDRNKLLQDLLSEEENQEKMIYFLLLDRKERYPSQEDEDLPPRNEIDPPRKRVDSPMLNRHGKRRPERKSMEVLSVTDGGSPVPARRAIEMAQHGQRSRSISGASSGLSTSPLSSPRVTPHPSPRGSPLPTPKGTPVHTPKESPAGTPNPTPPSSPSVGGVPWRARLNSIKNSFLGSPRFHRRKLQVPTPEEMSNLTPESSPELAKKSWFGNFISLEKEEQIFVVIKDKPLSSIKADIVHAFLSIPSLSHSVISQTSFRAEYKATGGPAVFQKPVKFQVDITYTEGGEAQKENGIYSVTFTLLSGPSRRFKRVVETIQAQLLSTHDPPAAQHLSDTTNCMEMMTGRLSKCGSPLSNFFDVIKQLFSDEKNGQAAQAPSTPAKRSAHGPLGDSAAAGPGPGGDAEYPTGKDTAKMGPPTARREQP

[6] = target: T3, Serine/threonine-protein kinase D3 (Homo sapiens) (UniProt O94806); assay: Inhibition of human PRKD3 at 1.82 nM by HotSpot assay relative to control
T3 sequence (whole entry): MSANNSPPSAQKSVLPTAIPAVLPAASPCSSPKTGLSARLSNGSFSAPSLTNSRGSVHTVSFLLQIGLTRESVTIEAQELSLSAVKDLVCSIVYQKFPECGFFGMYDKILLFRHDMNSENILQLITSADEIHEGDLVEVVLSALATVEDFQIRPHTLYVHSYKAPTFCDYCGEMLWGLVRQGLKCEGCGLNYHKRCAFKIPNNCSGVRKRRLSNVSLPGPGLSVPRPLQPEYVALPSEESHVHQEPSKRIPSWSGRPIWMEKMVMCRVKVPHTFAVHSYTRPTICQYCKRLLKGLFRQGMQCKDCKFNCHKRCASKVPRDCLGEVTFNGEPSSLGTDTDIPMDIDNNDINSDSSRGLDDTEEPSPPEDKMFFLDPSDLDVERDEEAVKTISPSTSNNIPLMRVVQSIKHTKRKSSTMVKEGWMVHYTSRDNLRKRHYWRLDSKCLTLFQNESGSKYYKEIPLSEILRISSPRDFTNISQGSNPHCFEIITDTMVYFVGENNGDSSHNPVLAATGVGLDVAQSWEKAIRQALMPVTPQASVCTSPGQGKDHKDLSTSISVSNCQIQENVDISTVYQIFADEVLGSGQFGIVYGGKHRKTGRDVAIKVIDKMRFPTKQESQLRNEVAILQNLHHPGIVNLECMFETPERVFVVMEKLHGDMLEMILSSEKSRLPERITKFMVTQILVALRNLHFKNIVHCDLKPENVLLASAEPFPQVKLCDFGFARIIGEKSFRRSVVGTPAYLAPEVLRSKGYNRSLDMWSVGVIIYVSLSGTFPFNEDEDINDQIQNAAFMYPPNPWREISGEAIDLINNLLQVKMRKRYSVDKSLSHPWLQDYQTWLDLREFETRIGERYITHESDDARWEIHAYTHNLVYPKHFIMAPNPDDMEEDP

[7] = target: Serine/threonine-protein kinase PLK2 (Homo sapiens) (UniProt Q9NYY3); assay: Inhibition of human PLK2 at 1.82 nM by HotSpot assay relative to control
Chain of Serine/threonine-protein kinase PLK2 (Homo sapiens) (Q9NYY3 whole entry, looked up): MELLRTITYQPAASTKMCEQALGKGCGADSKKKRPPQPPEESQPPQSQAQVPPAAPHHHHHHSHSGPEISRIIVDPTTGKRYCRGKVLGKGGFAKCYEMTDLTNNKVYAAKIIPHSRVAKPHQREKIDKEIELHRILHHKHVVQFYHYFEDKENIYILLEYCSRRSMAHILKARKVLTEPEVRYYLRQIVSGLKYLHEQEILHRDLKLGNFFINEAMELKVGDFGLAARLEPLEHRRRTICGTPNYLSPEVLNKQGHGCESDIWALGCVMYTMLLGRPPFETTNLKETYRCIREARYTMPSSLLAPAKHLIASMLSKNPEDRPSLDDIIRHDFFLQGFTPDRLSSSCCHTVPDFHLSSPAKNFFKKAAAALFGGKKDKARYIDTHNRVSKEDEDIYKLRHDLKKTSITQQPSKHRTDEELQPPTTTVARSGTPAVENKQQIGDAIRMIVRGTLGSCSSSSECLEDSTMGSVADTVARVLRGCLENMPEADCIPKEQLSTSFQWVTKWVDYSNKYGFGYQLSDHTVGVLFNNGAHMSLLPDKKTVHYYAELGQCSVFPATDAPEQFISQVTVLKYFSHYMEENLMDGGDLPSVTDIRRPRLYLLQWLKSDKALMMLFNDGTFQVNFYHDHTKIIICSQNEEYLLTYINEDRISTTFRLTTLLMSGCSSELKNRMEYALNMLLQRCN

[8] = target: STE20-like serine/threonine-protein kinase (Homo sapiens) (UniProt Q9H2G2); assay: Inhibition of human STK2 at 1.82 nM by HotSpot assay relative to control
Chain of STE20-like serine/threonine-protein kinase (Homo sapiens) (Q9H2G2 whole entry, looked up): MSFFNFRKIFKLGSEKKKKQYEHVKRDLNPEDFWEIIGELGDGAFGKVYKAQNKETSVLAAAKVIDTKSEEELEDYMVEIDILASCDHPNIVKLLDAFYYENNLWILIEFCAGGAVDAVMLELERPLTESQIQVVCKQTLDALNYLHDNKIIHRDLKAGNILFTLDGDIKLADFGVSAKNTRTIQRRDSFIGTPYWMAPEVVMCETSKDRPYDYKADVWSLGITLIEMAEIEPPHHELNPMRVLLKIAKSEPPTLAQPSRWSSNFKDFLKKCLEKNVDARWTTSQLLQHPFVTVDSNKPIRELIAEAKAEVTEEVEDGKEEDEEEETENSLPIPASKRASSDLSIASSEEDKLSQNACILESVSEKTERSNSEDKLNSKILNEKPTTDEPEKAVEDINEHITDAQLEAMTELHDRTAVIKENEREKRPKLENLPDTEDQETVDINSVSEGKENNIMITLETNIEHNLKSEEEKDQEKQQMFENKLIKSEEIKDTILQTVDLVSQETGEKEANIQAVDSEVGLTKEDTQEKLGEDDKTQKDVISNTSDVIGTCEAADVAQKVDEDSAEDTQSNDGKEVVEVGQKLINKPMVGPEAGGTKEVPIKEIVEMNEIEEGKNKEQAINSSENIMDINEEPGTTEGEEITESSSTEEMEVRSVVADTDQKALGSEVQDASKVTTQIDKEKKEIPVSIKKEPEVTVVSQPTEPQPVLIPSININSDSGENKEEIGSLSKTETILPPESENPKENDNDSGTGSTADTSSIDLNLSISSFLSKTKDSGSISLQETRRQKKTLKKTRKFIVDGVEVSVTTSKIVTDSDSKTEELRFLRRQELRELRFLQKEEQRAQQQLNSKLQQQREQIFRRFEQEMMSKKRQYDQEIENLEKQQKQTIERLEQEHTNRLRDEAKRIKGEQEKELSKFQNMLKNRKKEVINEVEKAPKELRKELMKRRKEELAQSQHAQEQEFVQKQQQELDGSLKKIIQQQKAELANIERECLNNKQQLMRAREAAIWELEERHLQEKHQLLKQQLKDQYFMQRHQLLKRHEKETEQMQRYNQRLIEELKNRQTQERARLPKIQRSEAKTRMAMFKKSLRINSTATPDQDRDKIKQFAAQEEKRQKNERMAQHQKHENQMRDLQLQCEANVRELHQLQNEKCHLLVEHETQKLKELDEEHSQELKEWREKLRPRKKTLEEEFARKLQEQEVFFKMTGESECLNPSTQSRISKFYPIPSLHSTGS

Chain of Vascular endothelial growth factor receptor 3 (Homo sapiens) (P35916 whole entry): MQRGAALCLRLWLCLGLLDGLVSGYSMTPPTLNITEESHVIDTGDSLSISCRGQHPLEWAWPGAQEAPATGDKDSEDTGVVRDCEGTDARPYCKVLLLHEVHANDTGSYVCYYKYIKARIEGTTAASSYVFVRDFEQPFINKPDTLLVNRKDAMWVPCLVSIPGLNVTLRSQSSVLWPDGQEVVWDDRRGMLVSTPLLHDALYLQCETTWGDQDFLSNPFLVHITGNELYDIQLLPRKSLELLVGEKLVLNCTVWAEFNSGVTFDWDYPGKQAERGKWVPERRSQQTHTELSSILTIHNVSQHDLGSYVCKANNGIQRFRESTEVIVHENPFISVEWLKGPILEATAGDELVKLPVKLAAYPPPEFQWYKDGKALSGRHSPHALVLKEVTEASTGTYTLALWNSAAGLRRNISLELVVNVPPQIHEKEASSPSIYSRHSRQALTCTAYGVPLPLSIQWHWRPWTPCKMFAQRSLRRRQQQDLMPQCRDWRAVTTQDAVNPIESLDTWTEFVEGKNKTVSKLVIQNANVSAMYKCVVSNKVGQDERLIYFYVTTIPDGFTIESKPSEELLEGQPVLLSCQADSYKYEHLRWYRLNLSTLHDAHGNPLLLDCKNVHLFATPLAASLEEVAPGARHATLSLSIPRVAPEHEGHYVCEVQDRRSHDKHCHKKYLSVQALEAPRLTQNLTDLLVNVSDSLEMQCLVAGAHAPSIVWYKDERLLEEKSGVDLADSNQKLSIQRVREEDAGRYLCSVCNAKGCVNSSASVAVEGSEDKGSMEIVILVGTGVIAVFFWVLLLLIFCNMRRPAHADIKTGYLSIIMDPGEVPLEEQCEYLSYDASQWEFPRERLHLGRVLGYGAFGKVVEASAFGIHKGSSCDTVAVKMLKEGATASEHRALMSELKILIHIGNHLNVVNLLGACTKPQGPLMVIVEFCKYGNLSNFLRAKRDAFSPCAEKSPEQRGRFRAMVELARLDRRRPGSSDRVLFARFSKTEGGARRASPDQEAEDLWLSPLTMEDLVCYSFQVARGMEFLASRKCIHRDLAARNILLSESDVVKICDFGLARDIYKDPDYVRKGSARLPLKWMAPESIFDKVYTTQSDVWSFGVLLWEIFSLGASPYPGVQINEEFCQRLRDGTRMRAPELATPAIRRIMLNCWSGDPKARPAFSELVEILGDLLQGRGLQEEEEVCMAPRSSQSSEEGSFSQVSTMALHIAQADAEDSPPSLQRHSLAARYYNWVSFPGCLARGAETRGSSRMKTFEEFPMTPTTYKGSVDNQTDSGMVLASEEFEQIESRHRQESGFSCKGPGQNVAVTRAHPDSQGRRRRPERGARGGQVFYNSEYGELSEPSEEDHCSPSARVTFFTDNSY

| inhibition [1] [%] | inhibition [3] [%] | inhibition [4] [%] | inhibition [5] [%] | inhibition [6] [%] | inhibition [7] [%] | inhibition [8] [%] | Compound | inhibition [2] [%] |
| --- | --- | --- | --- | --- | --- | --- | --- | --- |
| -2.25 | -7.19 | 7.34 | – | – | – | – | C[C@]1(O)C[C@@H](c2nc(-c3ccc4ccc(-c5ccccc5)nc4c3)c3c(N)nccn32)C1 | -6.26 |
| – | – | – | -3.06 | 2.81 | 1.2 | 15.4 | C[C@@]1(C(=O)Nc2ccc(F)nc2)CCCN1c1nc(Nc2cc(C3CC3)n[nH]2)c2cccn2n1 | – |

Source: ChEMBL document CHEMBL5653615 (J Biol Chem, 2013)
